# How the values were obtained:
# Type in all cases: cell-based
# [1] = molecular target: T1, human TLR7 (Homo sapiens, UniProt Q9NYK1); experiment: TLR7 inhibition reporter assay (HEK-Blue cells, SEAP reporter, gardiquimod stimulation); conditions: HEK-Blue cells overexpressing human TLR7, SEAP reporter, gardiquimod 7.5 μM
# T1 construct: host or cells: HEK-Blue cells (HEK293-derived reporter line)
# T1 sequence (Q9NYK1 27-1049): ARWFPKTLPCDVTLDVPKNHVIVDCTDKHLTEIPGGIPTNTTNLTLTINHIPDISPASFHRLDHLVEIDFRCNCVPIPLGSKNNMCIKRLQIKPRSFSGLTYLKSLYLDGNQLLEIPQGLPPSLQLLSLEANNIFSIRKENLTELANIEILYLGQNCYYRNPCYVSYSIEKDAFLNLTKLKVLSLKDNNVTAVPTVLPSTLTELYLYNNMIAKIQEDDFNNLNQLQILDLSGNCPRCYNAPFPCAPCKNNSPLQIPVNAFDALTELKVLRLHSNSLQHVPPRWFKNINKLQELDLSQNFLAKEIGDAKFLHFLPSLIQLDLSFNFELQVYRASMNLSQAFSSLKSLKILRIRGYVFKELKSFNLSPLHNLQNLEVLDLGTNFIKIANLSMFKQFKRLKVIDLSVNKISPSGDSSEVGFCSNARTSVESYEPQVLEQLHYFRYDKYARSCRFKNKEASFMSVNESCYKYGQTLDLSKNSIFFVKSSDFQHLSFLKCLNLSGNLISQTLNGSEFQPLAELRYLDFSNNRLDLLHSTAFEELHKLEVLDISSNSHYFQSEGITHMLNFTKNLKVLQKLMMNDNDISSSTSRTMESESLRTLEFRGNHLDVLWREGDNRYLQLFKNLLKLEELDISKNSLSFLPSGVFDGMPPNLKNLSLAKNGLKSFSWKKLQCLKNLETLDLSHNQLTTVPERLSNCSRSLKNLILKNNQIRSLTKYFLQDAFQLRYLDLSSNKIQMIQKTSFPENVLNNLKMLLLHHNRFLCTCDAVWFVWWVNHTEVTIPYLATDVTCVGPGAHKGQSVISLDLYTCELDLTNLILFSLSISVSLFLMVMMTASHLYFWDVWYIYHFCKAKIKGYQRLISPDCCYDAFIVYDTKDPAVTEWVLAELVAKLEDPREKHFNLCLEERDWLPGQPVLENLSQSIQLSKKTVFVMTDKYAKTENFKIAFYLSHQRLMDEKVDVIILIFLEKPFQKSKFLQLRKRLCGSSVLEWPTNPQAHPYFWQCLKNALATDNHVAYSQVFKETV
# In short: (§1)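 HEK-Blue cells overexpressing the receptor, with NF-κB/AP-1-driven SEAP, were pre-treated 30 min at room temperature with compound (0.05 nM–50 μM), then stimulated with gardiquimod 7.5 μM (TLR7), R848 15.9 μM (TLR8) or ODN2006 5 nM (TLR9). SEAP was read after 22 h at 37 °C as percent inhibition.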
# [2] = molecular target: T2, human TLR8 (Homo sapiens, UniProt Q9NR97); experiment: TLR8 inhibition reporter assay (HEK-Blue cells, SEAP reporter, R848 stimulation); conditions: HEK-Blue cells overexpressing human TLR8, SEAP reporter, R848 15.9 μM
# T2 construct: host or cells: HEK-Blue cells (HEK293-derived reporter line)
# T2 sequence (Q9NR97 27-1041): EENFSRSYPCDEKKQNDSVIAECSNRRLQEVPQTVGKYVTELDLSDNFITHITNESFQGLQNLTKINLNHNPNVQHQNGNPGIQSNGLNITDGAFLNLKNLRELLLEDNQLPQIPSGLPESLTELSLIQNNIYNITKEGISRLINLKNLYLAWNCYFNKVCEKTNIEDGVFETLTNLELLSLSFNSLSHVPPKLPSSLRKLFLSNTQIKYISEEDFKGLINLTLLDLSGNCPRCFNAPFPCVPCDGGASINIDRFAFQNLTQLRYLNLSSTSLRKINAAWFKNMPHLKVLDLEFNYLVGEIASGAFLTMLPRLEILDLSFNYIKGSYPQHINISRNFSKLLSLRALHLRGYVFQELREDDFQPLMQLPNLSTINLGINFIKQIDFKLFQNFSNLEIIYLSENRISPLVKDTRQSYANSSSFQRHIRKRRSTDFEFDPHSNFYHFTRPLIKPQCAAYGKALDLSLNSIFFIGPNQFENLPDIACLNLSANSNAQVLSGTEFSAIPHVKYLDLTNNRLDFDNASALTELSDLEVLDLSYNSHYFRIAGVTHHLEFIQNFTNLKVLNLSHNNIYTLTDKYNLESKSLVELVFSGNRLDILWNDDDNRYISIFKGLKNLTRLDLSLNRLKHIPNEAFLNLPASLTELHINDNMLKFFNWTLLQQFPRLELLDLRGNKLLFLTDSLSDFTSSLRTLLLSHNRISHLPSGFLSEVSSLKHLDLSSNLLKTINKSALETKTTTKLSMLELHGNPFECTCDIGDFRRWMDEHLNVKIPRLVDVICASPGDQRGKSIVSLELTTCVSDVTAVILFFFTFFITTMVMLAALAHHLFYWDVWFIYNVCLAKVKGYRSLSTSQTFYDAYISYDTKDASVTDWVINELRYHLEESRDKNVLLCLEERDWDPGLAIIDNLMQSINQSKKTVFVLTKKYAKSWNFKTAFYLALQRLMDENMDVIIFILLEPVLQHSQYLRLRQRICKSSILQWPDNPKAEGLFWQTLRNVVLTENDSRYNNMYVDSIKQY
# In short: as §1
# [3] = molecular target: T3, human TLR9 (Homo sapiens, UniProt Q9NR96); experiment: TLR9 inhibition reporter assay (HEK-Blue cells, SEAP reporter, ODN2006 stimulation); conditions: HEK-Blue cells overexpressing human TLR9, SEAP reporter, ODN2006 5 nM
# T3 construct: host or cells: HEK-Blue cells (HEK293-derived reporter line)
# T3 sequence (Q9NR96 26-1032): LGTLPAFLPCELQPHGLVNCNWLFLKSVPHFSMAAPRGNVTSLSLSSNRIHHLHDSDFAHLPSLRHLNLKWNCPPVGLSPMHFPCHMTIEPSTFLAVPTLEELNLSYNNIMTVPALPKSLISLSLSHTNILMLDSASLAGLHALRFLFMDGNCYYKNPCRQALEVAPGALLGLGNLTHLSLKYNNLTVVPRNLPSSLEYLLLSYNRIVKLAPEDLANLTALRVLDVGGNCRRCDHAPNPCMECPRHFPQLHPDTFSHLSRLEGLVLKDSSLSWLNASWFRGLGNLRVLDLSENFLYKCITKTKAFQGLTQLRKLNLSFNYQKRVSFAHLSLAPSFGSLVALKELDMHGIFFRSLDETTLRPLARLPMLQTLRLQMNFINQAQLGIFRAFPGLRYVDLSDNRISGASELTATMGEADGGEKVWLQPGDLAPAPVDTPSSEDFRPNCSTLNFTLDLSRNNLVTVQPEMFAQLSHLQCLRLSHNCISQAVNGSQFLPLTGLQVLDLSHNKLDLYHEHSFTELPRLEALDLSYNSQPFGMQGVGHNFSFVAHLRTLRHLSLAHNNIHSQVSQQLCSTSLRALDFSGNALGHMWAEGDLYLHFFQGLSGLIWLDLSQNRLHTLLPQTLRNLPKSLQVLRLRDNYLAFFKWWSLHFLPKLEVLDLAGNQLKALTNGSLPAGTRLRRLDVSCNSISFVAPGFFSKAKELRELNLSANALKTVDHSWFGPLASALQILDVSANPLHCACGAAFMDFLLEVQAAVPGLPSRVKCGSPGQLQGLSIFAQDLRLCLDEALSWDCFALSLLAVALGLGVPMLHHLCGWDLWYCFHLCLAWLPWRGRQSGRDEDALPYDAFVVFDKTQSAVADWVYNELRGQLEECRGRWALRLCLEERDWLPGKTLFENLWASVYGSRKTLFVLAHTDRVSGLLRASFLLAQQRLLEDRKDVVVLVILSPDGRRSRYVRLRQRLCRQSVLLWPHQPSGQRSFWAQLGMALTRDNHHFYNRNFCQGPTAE
# In short: as §1
SMILES,IC50 [1],IC50 [2],IC50 [3]
"CNC(=O)CN1CCC(c2ccc3[nH]c(-c4ccc5c(cnn5C)c4C)c(C(C)C)c3c2)CC1 [Example 365, 2-(4-(2-(1,4-dimethyl-1H-indazol-5-yl)-3-isopropyl-1H-indol-5-yl)piperidin-1-yl)-N-methylacetamide]",< 100 nM,100 to 1000 nM,> 50000 nM
"Cc1cc(-c2[nH]c3ccc(C4CCN(C(=O)C[C@H](C)O)CC4)cc3c2C(C)C)cc2ncnn12 [Example 600, (S)-3-hydroxy-1-(4-(3-isopropyl-2-(5-methyl-[1,2,4]triazolo[1,5-a]pyridin-7-yl)-1H-indol-5-yl)piperidin-1-yl)butan-1-one]",< 100 nM,100 to 1000 nM,1000 to 50000 nM
"Cc1cc(-c2[nH]c3ccc(C4CCN(C5COC5)CC4)cc3c2C(C)C)cc2cnnn12 [Example 744, 5-(3-isopropyl-5-(1-(oxetan-3-yl)piperidin-4-yl)-1H-indol-2-yl)-7-methyl-[1,2,3]triazolo[1,5-a]pyridine]",< 100 nM,< 100 nM,1000 to 50000 nM
"Cc1cc(-c2[nH]c3ccc(C4CCN(C(=O)CN(C)C(C)(C)C)CC4)cc3c2C(C)C)cn2nnnc12 [Example 481, 2-(tert-butyl(methyl)amino)-1-(4-(3-isopropyl-2-(8-methyltetrazolo[1,5-a]pyridin-6-yl)-1H-indol-5-yl)piperidin-1-yl)ethan-1-one]",< 100 nM,< 100 nM,1000 to 50000 nM
"Cc1cc(-c2[nH]c3ccc(C4CCN(C5COC5)CC4)cc3c2C(C)C)c2ccccc2n1 [Example 725, 4-(3-isopropyl-5-(1-(oxetan-3-yl)piperidin-4-yl)-1H-indol-2-yl)-2-methylquinoline]",< 100 nM,100 to 1000 nM,1000 to 50000 nM
"CNC(=O)CN1CCC(c2ccc3[nH]c(-c4cc(C)c5nc(C)c(C)n5c4)c(C(C)C)c3c2)CC1 [Example 429, 2-(4-(3-isopropyl-2-(2,3,8-trimethylimidazo[1,2-a]pyridin-6-yl)-1H-indol-5-yl)piperidin-1-yl)-N-methylacetamide]",< 100 nM,100 to 1000 nM,100 to 1000 nM
"CC(C)c1c(-c2cnc3cnccn23)[nH]c2ccc(C3CCN(CC(=O)N(C)C)CC3)cc12 [Example 426, 2-(4-(2-(imidazo[1,2-a]pyrazin-3-yl)-3-isopropyl-1H-indol-5-yl)piperidin-1-yl)-N,N-dimethylacetamide]",> 3130 nM,1000 to 50000 nM,1000 to 50000 nM
"CN(C)C(=O)CN1CCC(c2ccc3[nH]c(-c4ccn5ccnc5c4)c(CC(F)F)c3c2)CC1 [Example 445, 2-(4-(3-(2,2-difluoroethyl)-2-(imidazo[1,2-a]pyridin-7-yl)-1H-indol-5-yl)piperidin-1-yl)-N,N-dimethylacetamide]",< 100 nM,100 to 1000 nM,1000 to 50000 nM
"COc1cc(-c2[nH]c3ccc(C4CCN(CC(=O)N(C)C)CC4)cc3c2C(C)C)cc2nc(C)nn12 [Example 348, 2-(4-(3-isopropyl-2-(5-methoxy-2-methyl-[1,2,4]triazolo[1,5-a]pyridin-7-yl)-1H-indol-5-yl)piperidin-1-yl)-N,N-dimethylacetamide]",< 100 nM,< 100 nM,1000 to 50000 nM
"CCN(C)CCC(=O)N1CCC(c2ccc3[nH]c(-c4cc(C)c5nnnn5c4)c(C(C)C)c3c2)CC1 [Example 625, 3-(ethyl(methyl)amino)-1-(4-(3-isopropyl-2-(8-methyltetrazolo[1,5-a]pyridin-6-yl)-1H-indol-5-yl)piperidin-1-yl)propan-1-one]",< 100 nM,< 100 nM,1000 to 50000 nM
"COC(=O)C1CC(N2CCC(c3ccc4[nH]c(-c5ccnc6[nH]ncc56)c(C(C)C)c4c3)CC2)CCN1 (stereo not drawn) [Example 831, methyl 4-(3-isopropyl-2-(1H-pyrazolo[3,4-b]pyridin-4-yl)-1H-indol-5-yl)-[1,4′-bipiperidine]-2′-carboxylate]",< 100 nM,< 100 nM,100 to 1000 nM
"Cc1cc(-c2[nH]c3ccc(C4CCN(CC(C)C)CC4)cc3c2C(C)C)cc2[nH]cnc12 [Example 955, 6-(5-(1-isobutylpiperidin-4-yl)-3-isopropyl-1H-indol-2-yl)-4-methyl-1H-benzo[d]imidazole]",< 100 nM,< 100 nM,100 to 1000 nM
"Cc1cc2cc(-c3[nH]c4ccc(C5CCN(C(=O)CN(C)C)CC5)cc4c3C(C)C)ccn2n1 [Example 535, 2-(dimethylamino)-1-(4-(3-isopropyl-2-(2-methylpyrazolo[1,5-a]pyridin-5-yl)-1H-indol-5-yl)piperidin-1-yl)ethan-1-one]",100 to 1000 nM,1000 to 50000 nM,1000 to 50000 nM
"CCc1c(-c2ccnc3[nH]ncc23)[nH]c2ccc(C3CCN(C(=O)CNC)CC3)cc12 [Example 462, 1-(4-(3-ethyl-2-(1H-pyrazolo [3,4-b]pyridin-4-yl)-1H-indol-5-yl)piperidin-1-yl)-2-(methylamino)ethan-1-one]",< 100 nM,< 100 nM,1000 to 50000 nM
